Measured values published in article PMC5218480 (PLoS ONE, 2017).

Test system: MV-4-11 cells
Test: Gene expression microarray analysis (Affymetrix PrimeView) and GSEA
Type: cell-based, human
Set-up: RFU PODN (11730768_x_at) / Fold change /veh PODN (11730768_x_at) / RFU LINC00158 (11744669_a_at) / Fold change /veh LINC00158 (11744669_a_at) / RFU DUSP10 (11751237_a_at) / Fold change /veh DUSP10 (11751237_a_at) / RFU ID3 (11757404_x_at) / Fold change /veh ID3 (11757404_x_at) / RFU PLEKHG5 (11737974_s_at) / Fold change /veh PLEKHG5 (11737974_s_at) / RFU LRRC4B (11730491_at) / Fold change /veh LRRC4B (11730491_at) / RFU GIMAP4 (11747438_a_at) / Fold change /veh GIMAP4 (11747438_a_at) / RFU KRT8 (11758183_x_at) / Fold change /veh KRT8 (11758183_x_at) / RFU CNN1 (11734310_a_at) / Fold change /veh CNN1 (11734310_a_at) / RFU VPS37D (11726825_at) / Fold change /veh VPS37D (11726825_at) / RFU C10orf10 (11716522_x_at) / Fold change /veh C10orf10 (11716522_x_at) / RFU KIR2DL2 /// KIR2DL4 /// KIR2DL5A /// KIR2DL5B /// KIR2DS1 /// KIR2DS2 /// KIR2DS3 /// KIR2DS4 /// KIR3DL3 /// KIR3DL3 /// KIR3DS1 (11738374_at) / Fold change /veh KIR2DL2 /// KIR2DL4 /// KIR2DL5A /// KIR2DL5B /// KIR2DS1 /// KIR2DS2 /// KIR2DS3 /// KIR2DS4 /// KIR3DL3 /// KIR3DL3 /// KIR3DS1 (11738374_at) / RFU C1QL1 (11718748_at) / Fold change /veh C1QL1 (11718748_at) / RFU TMPRSS4 (11747572_a_at) / Fold change /veh TMPRSS4 (11747572_a_at) / RFU HAMP (11756126_x_at) / Fold change /veh HAMP (11756126_x_at) / RFU RNFT2 (11725882_a_at) / Fold change /veh RNFT2 (11725882_a_at) / RFU NR4A2 (11747474_a_at) / Fold change /veh NR4A2 (11747474_a_at) / RFU ABCC12 (11746883_a_at) / Fold change /veh ABCC12 (11746883_a_at) / RFU TMEM136 (11760407_x_at) / Fold change /veh TMEM136 (11760407_x_at) / RFU CLDN22 /// WWC2 (11732394_at) / Fold change /veh CLDN22 /// WWC2 (11732394_at) / RFU HLA-DPB1 (11760878_x_at) / Fold change /veh HLA-DPB1 (11760878_x_at) / RFU SPINT1 (11716480_a_at) / Fold change /veh SPINT1 (11716480_a_at) / RFU GAP43 (11754022_s_at) / Fold change /veh GAP43 (11754022_s_at) / RFU A4GNT (11735810_at) / Fold change /veh A4GNT (11735810_at) / RFU PRB3 (11715151_x_at) / Fold change /veh PRB3 (11715151_x_at) / RFU TUBB4B (11761932_at) / Fold change /veh TUBB4B (11761932_at) / RFU CAPN14 (11732068_a_at) / Fold change /veh CAPN14 (11732068_a_at) / RFU TMCC2 (11721928_a_at) / Fold change /veh TMCC2 (11721928_a_at) / RFU IRGQ (11745062_a_at) / Fold change /veh IRGQ (11745062_a_at) / RFU FAM174B (11720279_a_at) / Fold change /veh FAM174B (11720279_a_at) / RFU TMPRSS4 (11748680_a_at) / Fold change /veh TMPRSS4 (11748680_a_at) / RFU FAM212B (11763350_a_at) / Fold change /veh FAM212B (11763350_a_at) / RFU PLEKHG5 (11743358_a_at) / Fold change /veh PLEKHG5 (11743358_a_at) / RFU ZSCAN30 (11745921_a_at) / Fold change /veh ZSCAN30 (11745921_a_at) / RFU CMKLR1 (11741424_a_at) / Fold change /veh CMKLR1 (11741424_a_at) / RFU LOC101060620 /// MAPK8IP1 (11723275_at) / Fold change /veh LOC101060620 /// MAPK8IP1 (11723275_at) / RFU SPTSSB (11747773_x_at) / Fold change /veh SPTSSB (11747773_x_at) / RFU PRSS12 (11739890_at) / Fold change /veh PRSS12 (11739890_at) / RFU BIN1 (11741810_x_at) / Fold change /veh BIN1 (11741810_x_at) / RFU WNT11 (11732464_a_at) / Fold change /veh WNT11 (11732464_a_at) / RFU C10orf10 (11716521_a_at) / Fold change /veh C10orf10 (11716521_a_at) / RFU C5orf56 (11738089_at) / Fold change /veh C5orf56 (11738089_at) / RFU CYB561 (11721691_x_at) / Fold change /veh CYB561 (11721691_x_at) / RFU ANKRD19P (11752326_a_at) / Fold change /veh ANKRD19P (11752326_a_at) / RFU OR2T12 /// OR2T33 /// OR2T8 (11738714_s_at) / Fold change /veh OR2T12 /// OR2T33 /// OR2T8 (11738714_s_at) / RFU VCAN (11748164_a_at) / Fold change /veh VCAN (11748164_a_at) / RFU JSRP1 (11732532_at) / Fold change /veh JSRP1 (11732532_at) / RFU KRTAP10-11 (11738290_x_at) / Fold change /veh KRTAP10-11 (11738290_x_at) / RFU MYO3A (11730013_a_at) / Fold change /veh MYO3A (11730013_a_at) / RFU EBF3 (11725865_a_at) / Fold change /veh EBF3 (11725865_a_at) / RFU CAMK2N1 (11719241_x_at) / Fold change /veh CAMK2N1 (11719241_x_at) / RFU C5orf56 (11738088_a_at) / Fold change /veh C5orf56 (11738088_a_at) / RFU OLFML3 (11715873_a_at) / Fold change /veh OLFML3 (11715873_a_at) / RFU LOC100653217 /// NTM (11731650_a_at) / Fold change /veh LOC100653217 /// NTM (11731650_a_at) / RFU MAPK11 (11762145_a_at) / Fold change /veh MAPK11 (11762145_a_at) / RFU FIZ1 (11724087_x_at) / Fold change /veh FIZ1 (11724087_x_at) / RFU OASL (11726364_x_at) / Fold change /veh OASL (11726364_x_at) / RFU SOX15 (11748057_x_at) / Fold change /veh SOX15 (11748057_x_at) / RFU CD79A (11719716_a_at) / Fold change /veh CD79A (11719716_a_at) / RFU HIST1H1D (11736915_at) / Fold change /veh HIST1H1D (11736915_at) / RFU CASKIN2 (11723855_a_at) / Fold change /veh CASKIN2 (11723855_a_at) / RFU LOC730098 (11760151_x_at) / Fold change /veh LOC730098 (11760151_x_at) / RFU OR4N2 (11742367_at) / Fold change /veh OR4N2 (11742367_at) / RFU PRRT2 (11749266_a_at) / Fold change /veh PRRT2 (11749266_a_at) / RFU SNX32 (11753110_a_at) / Fold change /veh SNX32 (11753110_a_at) / RFU CDHR5 (11726645_a_at) / Fold change /veh CDHR5 (11726645_a_at) / RFU RCAN1 (11760418_a_at) / Fold change /veh RCAN1 (11760418_a_at) / RFU FAM167A (11723789_a_at) / Fold change /veh FAM167A (11723789_a_at) / RFU FAM26E (11764081_at) / Fold change /veh FAM26E (11764081_at) / RFU ISYNA1 (11749810_s_at) / Fold change /veh ISYNA1 (11749810_s_at) / RFU ACY1 (11761880_at) / Fold change /veh ACY1 (11761880_at) / RFU 11764098_at / Fold change /veh 11764098_at / RFU SAMD14 (11745864_x_at) / Fold change /veh SAMD14 (11745864_x_at) / RFU NPB (11741838_a_at) / Fold change /veh NPB (11741838_a_at) / RFU TMPRSS6 (11731388_a_at) / Fold change /veh TMPRSS6 (11731388_a_at) / RFU KRTAP10-2 (11738614_at) / Fold change /veh KRTAP10-2 (11738614_at) / RFU ARHGAP8 /// PRR5-ARHGAP8 (11727945_x_at) / Fold change /veh ARHGAP8 /// PRR5-ARHGAP8 (11727945_x_at) / RFU KRTAP5-7 /// NADSYN1 (11734609_at) / Fold change /veh KRTAP5-7 /// NADSYN1 (11734609_at) / RFU RASL12 (11751679_a_at) / Fold change /veh RASL12 (11751679_a_at) / RFU CDKN2B (11736163_a_at) / Fold change /veh CDKN2B (11736163_a_at) / RFU PRF1 (11729649_at) / Fold change /veh PRF1 (11729649_at) / RFU, ZNF638 /// ZNF638-IT1 / Fold change vs veh, ZNF638 /// ZNF638-IT1 / RFU, PANK3 / Fold change vs veh, PANK3 / RFU, SH3YL1 / Fold change vs veh, SH3YL1 / RFU, ZEB2 / Fold change vs veh, ZEB2 / RFU, NRIP1 / Fold change vs veh, NRIP1 / RFU, PTTG1IP / Fold change vs veh, PTTG1IP / RFU, CAPN2 / Fold change vs veh, CAPN2 / RFU, MED14 / Fold change vs veh, MED14 / RFU, SNORA58 / Fold change vs veh, SNORA58 / RFU, C1orf63 / Fold change vs veh, C1orf63 / RFU, LRRFIP1 / Fold change vs veh, LRRFIP1 / RFU, NDUFAF7 / Fold change vs veh, NDUFAF7 / RFU, SLC12A2 / Fold change vs veh, SLC12A2 / RFU, IBTK / Fold change vs veh, IBTK / RFU, ESF1 / Fold change vs veh, ESF1 / Fold change vs veh, TMEM50B / RFU, TAOK1 / Fold change vs veh, TAOK1 / RFU, ACBD3 / Fold change vs veh, ACBD3 / RFU, TMA16 / Fold change vs veh, TMA16 / RFU, RWDD3 / Fold change vs veh, RWDD3 / RFU, BCAT1 / Fold change vs veh, BCAT1 / RFU, EDEM3 / Fold change vs veh, EDEM3 / RFU, TMEM33 / Fold change vs veh, TMEM33 / RFU, WDR75 / Fold change vs veh, WDR75 / RFU, AHCTF1 / Fold change vs veh, AHCTF1 / RFU, TFRC / Fold change vs veh, TFRC / RFU, ZDHHC17 / Fold change vs veh, ZDHHC17 / RFU, NOM1 / Fold change vs veh, NOM1 / RFU, ARL8B / Fold change vs veh, ARL8B / RFU, ZBTB11 / Fold change vs veh, ZBTB11 / RFU, TAMM41 / Fold change vs veh, TAMM41 / RFU, KIAA1704 /// LOC100996395 / Fold change vs veh, KIAA1704 /// LOC100996395 / RFU, ING1 / Fold change vs veh, ING1 / RFU, TRMT61B / Fold change vs veh, TRMT61B / RFU, FUBP3 / Fold change vs veh, FUBP3 / RFU, TP53 / Fold change vs veh, TP53 / RFU, TNKS2 / Fold change vs veh, TNKS2 / RFU, ZFP14 / Fold change vs veh, ZFP14 / RFU, ACTR2 / Fold change vs veh, ACTR2 / RFU, PPP3R1 / Fold change vs veh, PPP3R1 / RFU, PIK3R1 / Fold change vs veh, PIK3R1 / RFU, HNRNPA1 / Fold change vs veh, HNRNPA1 / RFU, RNF170 / Fold change vs veh, RNF170 / RFU, ZNF28 / Fold change vs veh, ZNF28 / RFU, RNGTT / Fold change vs veh, RNGTT / RFU, OGT / Fold change vs veh, OGT / RFU, BRD1 / Fold change vs veh, BRD1 / RFU, MARS / Fold change vs veh, MARS / RFU, ZNF655 / Fold change vs veh, ZNF655 / RFU, FAHD1 / Fold change vs veh, FAHD1 / RFU, BDP1 / Fold change vs veh, BDP1 / RFU, LRRCC1 / Fold change vs veh, LRRCC1 / RFU, ARID1A / Fold change vs veh, ARID1A / RFU, ZNF146 / Fold change vs veh, ZNF146 / RFU, ZNF330 / Fold change vs veh, ZNF330 / RFU, GPN3 / Fold change vs veh, GPN3 / RFU, C9orf123 / Fold change vs veh, C9orf123 / RFU, N4BP2L2 / Fold change vs veh, N4BP2L2 / RFU, ARFIP1 / Fold change vs veh, ARFIP1 / RFU, FAM179B / Fold change vs veh, FAM179B / RFU, BCL10 / Fold change vs veh, BCL10 / RFU, UHRF1BP1L / Fold change vs veh, UHRF1BP1L / RFU, BET1 / Fold change vs veh, BET1 / RFU, CNOT2 / Fold change vs veh, CNOT2 / RFU, ZNF268 / Fold change vs veh, ZNF268 / Fold change vs veh, ZNF507 / RFU, DGCR2 / Fold change vs veh, DGCR2 / RFU, WDSUB1 / Fold change vs veh, WDSUB1 / Fold change vs veh, HSP90B1 /// MIR3652 / RFU, ADSS / Fold change vs veh, ADSS / RFU, GK / Fold change vs veh, GK / RFU, ZNF148 / Fold change vs veh, ZNF148 / RFU, TAF9 / Fold change vs veh, TAF9 / RFU, SLC1A5 / Fold change vs veh, SLC1A5 / RFU, SLMO2 / Fold change vs veh, SLMO2 / RFU, ABCC4 / Fold change vs veh, ABCC4 / RFU, LOC101060439 /// RAP1B / Fold change vs veh, LOC101060439 /// RAP1B / RFU, RFX7 / Fold change vs veh, RFX7 / RFU, GTPBP10 / Fold change vs veh, GTPBP10 / RFU, CNEP1R1 / Fold change vs veh, CNEP1R1 / RFU, BIVM-ERCC5 /// ERCC5 / Fold change vs veh, BIVM-ERCC5 /// ERCC5 / RFU, ILF3 / Fold change vs veh, ILF3 / RFU 11762660_at / Fold change /veh 11762660_at / RFU VCAN (11757783_s_at) / Fold change /veh VCAN (11757783_s_at) / RFU DDX43 (11728927_at) / Fold change /veh DDX43 (11728927_at) / RFU KRT8 (11758188_x_at) / Fold change /veh KRT8 (11758188_x_at) / RFU NKD1 (11759106_at) / Fold change /veh NKD1 (11759106_at) / RFU SRD5A1 (11742802_a_at) / Fold change /veh SRD5A1 (11742802_a_at) / RFU TPSAB1 /// TPSB2 (11721975_s_at) / Fold change /veh TPSAB1 /// TPSB2 (11721975_s_at) / RFU GSTM3 (11746129_a_at) / Fold change /veh GSTM3 (11746129_a_at) / RFU IL23R (11737362_x_at) / Fold change /veh IL23R (11737362_x_at) / RFU TMEM51 (11727254_a_at) / Fold change /veh TMEM51 (11727254_a_at) / RFU PIWIL2 (11732686_x_at) / Fold change /veh PIWIL2 (11732686_x_at) / RFU ORM1 (11744905_x_at) / Fold change /veh ORM1 (11744905_x_at) / RFU CCDC152 (11743942_at) / Fold change /veh CCDC152 (11743942_at) / RFU ECM1 (11717891_a_at) / Fold change /veh ECM1 (11717891_a_at) / RFU IL23R (11748794_a_at) / Fold change /veh IL23R (11748794_a_at) / RFU TNFAIP8L3 (11732012_x_at) / Fold change /veh TNFAIP8L3 (11732012_x_at) / RFU MBOAT4 (11741988_at) / Fold change /veh MBOAT4 (11741988_at) / RFU 11764193_at / Fold change /veh 11764193_at / RFU TMEM53 (11763286_at) / Fold change /veh TMEM53 (11763286_at) / RFU MAGEB2 (11727129_at) / Fold change /veh MAGEB2 (11727129_at) / RFU TMEM200A (11744735_a_at) / Fold change /veh TMEM200A (11744735_a_at) / RFU CCDC152 (11751479_a_at) / Fold change /veh CCDC152 (11751479_a_at) / RFU FAM211A (11726209_a_at) / Fold change /veh FAM211A (11726209_a_at) / RFU RGS16 (11746705_a_at) / Fold change /veh RGS16 (11746705_a_at) / RFU VCAN (11755009_s_at) / Fold change /veh VCAN (11755009_s_at) / RFU RHOB (11743442_s_at) / Fold change /veh RHOB (11743442_s_at) / RFU RGS16 (11720943_a_at) / Fold change /veh RGS16 (11720943_a_at) / RFU RGS16 (11720944_at) / Fold change /veh RGS16 (11720944_at) / RFU, VPS4B / Fold change vs veh, VPS4B / RFU, CREB1 / Fold change vs veh, CREB1 / RFU, DNAJC13 / Fold change vs veh, DNAJC13 / RFU, GNAQ / Fold change vs veh, GNAQ / RFU, CDK5R1 / Fold change vs veh, CDK5R1 / RFU, ZRANB3 / Fold change vs veh, ZRANB3 / RFU, CUL4A / Fold change vs veh, CUL4A / RFU, CCNY / Fold change vs veh, CCNY / RFU, UFL1 / Fold change vs veh, UFL1 / RFU, COG3 / Fold change vs veh, COG3 / RFU, DIAPH2 / Fold change vs veh, DIAPH2 / RFU, SKA2 / Fold change vs veh, SKA2 / RFU, AFF3 / Fold change vs veh, AFF3 / RFU, LMF1 / Fold change vs veh, LMF1 / RFU, IPO11 / Fold change vs veh, IPO11 / RFU, DFFB / Fold change vs veh, DFFB / RFU, FOXP1 / Fold change vs veh, FOXP1 / RFU, CARD8 / Fold change vs veh, CARD8 / RFU, STRN3 / Fold change vs veh, STRN3 / RFU, ADK / Fold change vs veh, ADK / RFU, RASSF2 / Fold change vs veh, RASSF2 / RFU, WIPF1 / Fold change vs veh, WIPF1 / RFU, LARP1B / Fold change vs veh, LARP1B / RFU, RASA1 / Fold change vs veh, RASA1 / RFU, RB1 / Fold change vs veh, RB1 / RFU, PPFIA1 / Fold change vs veh, PPFIA1 / RFU, MAT2A / Fold change vs veh, MAT2A / RFU, CCT5 / Fold change vs veh, CCT5 / RFU, WDR92 / Fold change vs veh, WDR92 / RFU, CUX1 / Fold change vs veh, CUX1 / RFU, TTC7A / Fold change vs veh, TTC7A / RFU, TMEM135 / Fold change vs veh, TMEM135 / RFU, DEPTOR / Fold change vs veh, DEPTOR / RFU, CPM / Fold change vs veh, CPM / RFU, DNAJB6 / Fold change vs veh, DNAJB6 / RFU, CACNA2D3 / Fold change vs veh, CACNA2D3 / RFU, DTX4 / Fold change vs veh, DTX4 / RFU, TFCP2 / Fold change vs veh, TFCP2 / RFU, GMCL1 /// GMCL1P1 / Fold change vs veh, GMCL1 /// GMCL1P1 / RFU, AEBP2 / Fold change vs veh, AEBP2 / RFU, SNHG1 /// SNORD22 /// SNORD25 /// SNORD26 /// SNORD27 /// SNORD28 /// SNORD29 /// SNORD31 / Fold change vs veh, SNHG1 /// SNORD22 /// SNORD25 /// SNORD26 /// SNORD27 /// SNORD28 /// SNORD29 /// SNORD31 / Fold change (Aza/veh), C12orf56 (ProbeSet 11735607_a_at) / Fold change (ACY-1035/veh), C12orf56 (ProbeSet 11735607_a_at) / Fold change (Aza/veh), FGFR1OP (ProbeSet 11751329_s_at) / Fold change (ACY-1035/veh), FGFR1OP (ProbeSet 11751329_s_at) / Fold change (Aza/veh), VPS36 (ProbeSet 11739960_a_at) / Fold change (ACY-1035/veh), VPS36 (ProbeSet 11739960_a_at) / RFU SYPL1 (11715823_x_at) / Fold change /veh SYPL1 (11715823_x_at) / RFU IGFBP7 (11715501_s_at) / Fold change /veh IGFBP7 (11715501_s_at) / RFU REEP3 (11722064_at) / Fold change /veh REEP3 (11722064_at) / RFU IGLL1 (11728026_x_at) / Fold change /veh IGLL1 (11728026_x_at): dose or concentration left out as unconfirmed
Conditions: MV-4-11 cells, 48 hours

With `Nc1ncn([C@@H]2O[C@H](CO)[C@@H](O)[C@H]2O)c(=O)n1` [azacitidine] the “Fold change /veh ZSCAN30 (11745921_a_at)” value was 1.18.
